Legend:
[1] = system: PBMC; experiment: MTT assay, peripheral blood mononuclear cells; type: cell-based, human; conditions: 72 h
Procedure: (§1) The colorimetric MTT (3-(4,5-dimethylthiazol-2-yl)-2,5-diphenyltetrazolium bromide) assay was used to measure the cell viability of all of the above cell lines following treatment with target hybrids. Exponentially growing cells were added into 96-well plates at a concentration of 2000–4000 cells per well. Following attachment the cells were treated with varying concentrations (64, 16, 4, 1, 0.25, 0.0625 and 0.015625 µM) of target compounds in media and were kept for incubation for 72 h. MTT (20 µL, 5 mg/mL in PBS) was added to each well and the cells were incubated for another 3 h at 37 °C. Then the medium was removed, followed by the addition of 150 µL DMSO for each well. After that, the absorbance (OD) data of each well at 570 nm wavelength were measured by a Microplate Reader (BIO-RAD), and half inhibition rates (IC50) were calculated[59]^,[60].

[2] = system: HCT-116; experiment: MTT antiproliferative assay, HCT-116; type: cell-based, human; conditions: 72 h, colorectal carcinoma HCT-116
Procedure: as §1

[3] = system: MCF-7; experiment: MTT antiproliferative assay, MCF-7; type: cell-based, human; conditions: 72 h, breast carcinoma MCF-7
Procedure: as §1

[4] = system: B16; experiment: MTT antiproliferative assay, B16; type: cell-based; conditions: 72 h, melanoma B16
Procedure: as §1

[5] = system: Bax; experiment: Human Apoptosis Array kit, Bax expression in K562 cells; type: cell-based; conditions: K562, 2 µM, 24 h
Procedure: (§2) The relative expression levels of 35 apoptosis-related proteins were evaluated using Human Apoptosis Array kit (R&D Systems, Abingdon, UK) in K562 cells. Proteins were extracted according to the manufacturer’s protocol from cells treated for 24 h with compound 15a (2 µM). The tool is fast, sensitive and economical, with 2.0 ml of array buffer added to each well, followed by array, The capture antibodies are retained in their specific locations, then incubated, transferred, diluted, added to Streptavidin-HRP, shaken. The platform shaker was incubated on the plate for 30 min, then the membrane was removed, 1 ml of the prepared Chemi Reagent Mix was evenly pipetted onto each membrane, incubated, the excess Chemi Reagent Mix was removed, and the membrane was placed in a self-developing film cartridge, exposed to X-ray film for 1–10 min. The positive signals seen on developed film can be quickly identified by placing the transparency overlay template on the array image and aligning it with the pairs of reference spots in three corners of each array. Creating templates, exporting files, averaging signals, finding backgrounds, comparing corresponding signals on the array to determine relative changes in apoptosis-related protein levels.

[6] = system: HepG2; experiment: MTT antiproliferative assay, HepG2; type: cell-based, human; conditions: 72 h, hepatoma HepG2
Procedure: as §1

[7] = system: K562; experiment: MTT antiproliferative assay, K562; type: cell-based, human; conditions: 72 h, chronic myeloid leukaemia K562
Procedure: as §1

[8] = system: Catalase; experiment: Human Apoptosis Array kit, catalase expression in K562 cells; type: cell-based; conditions: K562, 2 µM, 24 h
Procedure: as §2

[9] = system: HtrA2; experiment: Human Apoptosis Array kit, HtrA2 expression in K562 cells; type: cell-based; conditions: K562, 2 µM, 24 h
Procedure: as §2

[10] = system: Bad; experiment: Human Apoptosis Array kit, Bad expression in K562 cells; type: cell-based; conditions: K562, 2 µM, 24 h
Procedure: as §2

[11] = system: Claspin; experiment: Human Apoptosis Array kit, claspin expression in K562 cells; type: cell-based; conditions: K562, 2 µM, 24 h
Procedure: as §2

[12] = system: K562 cells; experiment: Hoechst 33258 staining, morphological analysis; type: cell-based, human
Procedure: K562 cells were incubated with different concentrations (0, 0.8, 1.6 and 3.2 µM) of 15a for a period of time, the medium containing the compound was removed, the cell smear was naturally dried, and immersed in 4% paraformaldehyde for 30 min or overnight to improve cell permeability, then soaked in PBS, washed for three times, added appropriate amount of Hoechst 33258 staining solution, fully covered, allowed to stand at room temperature for 10 min, finally immersed in PBS again, washed three times and sealed. Anti-fluorescence quenching after the liquid was sealed, the staining results were observed under a fluorescence microscope.

[13] = system: K562 cells; experiment: Cell apoptosis assay (Annexin V-FITC/PI, flow cytometry); type: cell-based, human; conditions: 72 h
Procedure: […] 500 µL of binding buffer suspension cells, 5 µL of Annexin V-FITC, and 5 µL of PI were mixed incubated at room temperature, protected from light, and reacted for 5–15 min, then analysed with flow cytometry instrument to detect cell apoptosis.

[14] = system: K562 cells; experiment: Cell cycle analysis (PI staining, flow cytometry); type: cell-based, human; conditions: 72 h
Procedure: The cells in the logarithmic growth phase were digested into six-well plates. The next day, cells were treated with different concentrations (0, 0.8, 1.6, 3.2 µM) of compound 15a. After 72 h, 5 × 10^5 cells were collected and fixed with a volume fraction of 70% ethanol for 2 h (or overnight), washed the fixative with PBS, added 100 µL RNase A in 37 °C water bath for 30 min, and finally 400 µL of PI stain was added, after 30 min under the dark at 4 °C, the cytometry was used to record the red fluorescence at the excitation wavelength of 488 nm, and the cell cycle distribution of the DNA content was evaluated.

[15] = system: L-02; experiment: MTT assay, normal hepatic L-02 cell line; type: cell-based; conditions: 72 h, human normal hepatic L-02 cell line
Procedure: as §1

Substance: 4-((1-(6-Methoxy-4-oxo-4H-chromene-3-carboxamido)propan-2-yl)oxy)-3-(phenylsulfonyl)-1,2,5-oxadiazole 2-oxide [15a]
- IC50 [1]: > 50 µM
- IC50 [2]: 6.74 ± 0.9 µM
- IC50 [3]: 13.7 ± 0.33 µM
- IC50 [4]: 9.72 ± 0.52 µM
- expression of Bax compared to the control [5]: increased expression
- IC50 [6]: 4.86 ± 0.39 µM
- IC50 [7]: 1.61 ± 0.18 µM
- expression of Catalase [8]: up-regulated
- expression level of HtrA2 [9]: increased the expression levels
- expression of Bad compared to the control [10]: increased expression
- expression of Claspin [11]: increased
- cell morphology after Hoechst 33258 staining ([12]; K562, 3.2 µM): cell membranes were ruptured and the nuclei were fragmented
- cell morphology after Hoechst 33258 staining ([12]; K562, 0.8 and 1.6 µM): typical apoptotic morphology
- apoptotic rate ([13]; K562, 0.8 µM): 16.28%
- apoptotic rate ([13]; K562, 1.6 µM): 20.56%
- apoptotic rate ([13]; K562, 3.2 µM): 51.87%
- cells in G1 phase ([14]; K562, 0.8 µM): 48.84%
- cells in G2 phase ([14]; K562, 0.8 µM): 10.71%
- cells in S phase ([14]; K562, 0.8 µM): 40.45%
- cells in G1 phase ([14]; K562, 1.6 µM): 41.43%
- cells in G2 phase ([14]; K562, 1.6 µM): 11.89%
- cells in S phase ([14]; K562, 1.6 µM): 46.68%
- cells in G1 phase ([14]; K562, 3.2 µM): 36.21%
- cells in G2 phase ([14]; K562, 3.2 µM): 13.51%
- cells in S phase ([14]; K562, 3.2 µM): 50.28%
- IC50 [15]: 36.9 ± 0.62 µM

— PMC7144234, “Antiproliferative chromone derivatives induce K562 cell death through endogenous and exogenous pathways” (Journal of Enzyme Inhibition and Medicinal Chemistry, 2020)
